Reference: US20100113527A1, “CRYSTALLINE FORMS OF DEXLANSOPRAZOLE” (Teva Pharmaceutical Industries Ltd., priority 2008, published 2010)

Assay: Stability of crystalline form against polymorphic transformation at 60% relative humidity (PXRD comparison, FIG. 2)
Type: physicochemical
Description: FIG. 2 illustrates an X-ray powder diffraction pattern of form X of dexLansoprazole compared with the same form X after a week at 60% relative humidity.
As used herein in connection with form X, the term “stable” refers to stability against transformation, in which no more than about 20% of a polymorphic form transforms to another form under no less than about 60% relative humidity at about room temperature. When made according to the preferred embodiments of the present invention, less than 20% of form X transforms to any other form upon exposure to a RH of 60% at room temperature for a period of 7 days.
For ARL Powder diffractometer (All XRD Figures except FIG. 13):
Sample: Spin/Oscillate mode Range: 2-40 degrees two-theta Scan mode: Continuous scan Step size: 0.05 deg Scan rate: 3 deg./min

In the case of `Cc1c(OCC(F)(F)F)ccnc1C[S@@+]([O-])c1nc2ccccc2[nH]1` [form X, (R)-2-[(3-methyl-4-(2,2,2-trifluoroethoxy)pyridin-2-yl)methylsulfinyl]-1H-benzoimidazole], the “amount of the form that transforms to any other form” value (exposure to RH of 60% at room temperature for 7 days) is reported as “less than 20%” and the “stability of the crystalline form (PXRD pattern after storage)” value (relative humidity of 60%, room temperature, 7 days, PXRD, FIG. 2) is reported as “retains its PXRD pattern”.
